Patent US10238670B2, “9-aminomethyl minocycline compounds and methods of use thereof in urinary tract infection (UTI) treatment” (Paratek Pharmaceuticals, Inc., priority 2016, dated 2019)
In brackets after ≈: the same amount, converted by molar mass.

How the values were obtained:
Assay in all cases: In vitro MIC, 2010 surveillance isolates
[1] = tested on: K. pneumoniae ESBL+; type: cell-based, Klebsiella pneumoniae
[2] = tested on: K. oxytoca; type: cell-based
[3] = tested on: Enterobacter spp; type: cell-based
[4] = tested on: E. cloacae CeftazS; type: cell-based; set-up: MIC90: unit: µg/mL
[5] = tested on: K. pneumoniae ESBL−; type: cell-based, Klebsiella pneumoniae
[6] = tested on: A. baumanii; type: cell-based
[7] = tested on: E. coli ESBL+; type: cell-based, Escherichia coli
[8] = tested on: E. coli ESBL−; type: cell-based, Escherichia coli
[9] = tested on: E. cloacae CeftazR; type: cell-based
[10] = tested on: Acinetobacter spp; type: cell-based

In the case of C[C@@H](O)[C@H]1C(=O)N2C(C(=O)O)=C(SCCN=CN)C[C@H]12 [Imipenem], the “% R (resistance)” value ([1]; Asia/Pac, Eucast breakpoints) is reported as 10.5%, the MIC90 ([1]; Asia/Pac, N=124) is reported as greater than 8 µg/mL and the “% R (resistance)” value ([1]; Europe, Eucast breakpoints) is reported as 7.9%. For the same compound, the MIC90 ([1]; Europe, N=151) was 2 µg/mL (≈ 6.68 µM), the “% R (resistance)” value ([1]; L. Amer, CLSI breakpoints) was 18.7% and the MIC90 ([1]; L. Amer, N=209) was greater than 8 µg/mL. For the same compound, the “% R (resistance)” value ([1]; N America, CLSI breakpoints) was 26.9%, the MIC90 ([1]; N America, N=108) was greater than 8 µg/mL and the “% R (resistance)” value ([2]; Asia/Pac, Eucast breakpoints) was 0%. The MIC90 ([2]; Asia/Pac, N=17) was 0.5 µg/mL (≈ 1.67 µM), the “% R (resistance)” value ([2]; Europe, Eucast breakpoints) was 0% and the MIC90 ([2]; Europe, N=158) was 0.25 µg/mL (≈ 0.835 µM). For the same compound, the “% R (resistance)” value ([2]; L. Amer, CLSI breakpoints) was 4%, the MIC90 ([2]; L. Amer, N=25) was 0.25 µg/mL (≈ 0.835 µM) and the “% R (resistance)” value ([2]; N America, CLSI breakpoints) was 0.6%. For the same compound, the MIC90 ([2]; N America, N=177) was 0.25 µg/mL (≈ 0.835 µM), the “% R (resistance)” value ([3]; Asia/Pac, Eucast breakpoints) was 0% and the MIC90 ([3]; Asia/Pac, N=52) was 1 µg/mL (≈ 3.34 µM). For the same compound, the “% R (resistance)” value ([3]; Europe, Eucast breakpoints) was 0%, the MIC90 ([3]; Europe, N=82) was 1 µg/mL (≈ 3.34 µM) and the “% R (resistance)” value ([3]; L. Amer, CLSI breakpoints) was 0%. For the same compound, the MIC90 ([3]; L. Amer, N=42) was 1 µg/mL (≈ 3.34 µM), the “% R (resistance)” value ([3]; N America, CLSI breakpoints) was 1 (1) % and the MIC90 ([3]; N America, N=101) was 1 (1). For the same compound, the MIC90 ([4]; Asia/Pac, N=100) was 1 (1), the “% R (resistance)” value ([4]; Europe, Eucast breakpoints) was 0% and the MIC90 ([4]; Europe, N=183) was 0.5 µg/mL (≈ 1.67 µM). For the same compound, the “% R (resistance)” value ([4]; L. Amer, CLSI breakpoints) was 0%, the MIC90 ([4]; L. Amer, N=57) was 0.5 µg/mL (≈ 1.67 µM) and the “% R (resistance)” value ([4]; N America, CLSI breakpoints) was 0%. The MIC90 ([4]; N America, N=210) was 0.5 µg/mL (≈ 1.67 µM), the “% R (resistance)” value ([5]; Asia/Pac, Eucast breakpoints) was 0% and the MIC90 ([5]; Asia/Pac, N=189) was 0.5 µg/mL (≈ 1.67 µM). For the same compound, the “% R (resistance)” value ([5]; Europe, Eucast breakpoints) was 0%, the MIC90 ([5]; Europe, N=361) was 0.25 µg/mL (≈ 0.835 µM) and the “% R (resistance)” value ([5]; L. Amer, CLSI breakpoints) was 0%. For the same compound, the MIC90 ([5]; L. Amer, N=160) was 0.25 µg/mL (≈ 0.835 µM), the “% R (resistance)” value ([5]; N America, CLSI breakpoints) was 0% and the MIC90 ([5]; N America, N=671) was 0.25 µg/mL (≈ 0.835 µM). For the same compound, the “% R (resistance)” value ([6]; Asia/Pac, Eucast breakpoints) was 72.4%, the MIC90 ([6]; Asia/Pac, N=275) was greater than 8 µg/mL and the “% R (resistance)” value ([6]; Europe, Eucast breakpoints) was 66.2%. For the same compound, the MIC90 ([6]; Europe, N=145) was greater than 8 µg/mL, the “% R (resistance)” value ([6]; L. Amer, CLSI breakpoints) was 75.6% and the MIC90 ([6]; L. Amer, N=275) was greater than 8 µg/mL. For the same compound, the “% R (resistance)” value ([6]; N America, CLSI breakpoints) was 53.2%, the MIC90 ([6]; N America, N=154) was greater than 8 µg/mL and the “% R (resistance)” value ([7]; Asia/Pac, Eucast breakpoints) was 0.5%. For the same compound, the MIC90 ([7]; Asia/Pac, N=219) was 0.25 µg/mL (≈ 0.835 µM), the “% R (resistance)” value ([7]; Europe, Eucast breakpoints) was 0% and the MIC90 ([7]; Europe, N=274) was 0.25 µg/mL (≈ 0.835 µM). The “% R (resistance)” value ([7]; L. Amer, CLSI breakpoints) was 0.6%, the MIC90 ([7]; L. Amer, N=168) was 0.25 µg/mL (≈ 0.835 µM) and the “% R (resistance)” value ([7]; N America, CLSI breakpoints) was 0%. For the same compound, the MIC90 ([7]; N America, N=134) was 0.25 µg/mL (≈ 0.835 µM), the “% R (resistance)” value ([8]; Asia/Pac, Eucast breakpoints) was 0% and the MIC90 ([8]; Asia/Pac, N=282) was no more than 0.12 µg/mL. The “% R (resistance)” value ([8]; Europe, Eucast breakpoints) was 0%, the MIC90 ([8]; Europe, N=1533) was no more than 0.12 µg/mL and the “% R (resistance)” value ([8]; L. Amer, CLSI breakpoints) was 0%. The MIC90 ([8]; L. Amer, N=389) was no more than 0.12 µg/mL, the “% R (resistance)” value ([8]; N America, CLSI breakpoints) was 0% and the MIC90 ([8]; N America, N=1172) was no more than 0.12 µg/mL. The “% R (resistance)” value ([9]; Asia/Pac, Eucast breakpoints) was 0%, the MIC90 ([9]; Asia/Pac, N=63) was 1 µg/mL (≈ 3.34 µM) and the “% R (resistance)” value ([9]; Europe, Eucast breakpoints) was 1.4%. The MIC90 ([9]; Europe, N=72) was 1 µg/mL (≈ 3.34 µM), the “% R (resistance)” value ([9]; L. Amer, CLSI breakpoints) was 0% and the MIC90 ([9]; L. Amer, N=42) was 0.5 µg/mL (≈ 1.67 µM). The “% R (resistance)” value ([9]; N America, CLSI breakpoints) was 11.7%, the MIC90 ([9]; N America, N=77) was 8 µg/mL (≈ 26.7 µM) and the “% R (resistance)” value ([10]; Asia/Pac, Eucast breakpoints) was 11.1%. For the same compound, the “% R (resistance)” value ([10]; Europe, Eucast breakpoints) was 30.2%, the MIC90 ([10]; Europe, N=43) was greater than 8 µg/mL and the “% R (resistance)” value ([10]; L. Amer, CLSI breakpoints) was 44.4%. For the same compound, the “% R (resistance)” value ([10]; N America, CLSI breakpoints) was 4.8% and the MIC90 ([10]; N America, N=42) was 8 µg/mL (≈ 26.7 µM).
